Laboratory results from patent US11066414B2, “Cot modulators and methods of use thereof” (Gilead Sciences, Inc., priority 2015, dated 2021).
Read-outs that look alike come from different tables or passages of the source.

Columns and labels:
TNFα = test: Cot Monocyte TNFα Cell Based Assay
Human Cot = Human Cot (Homo sapiens (Human), UniProt P41279); test: High Throughput Cot Biochemical Assay; conditions: Cot HTRF (TR-FRET KinEASE) biochemical assay, 400 μM ATP
[1] = read-out: EC50 TNF, LPS-stimulated human monocytes, TNFα TR-FRET
[2] = Homo sapiens, Monocyte, read-out: EC50 TNF, LPS-stimulated human monocytes, TNFα TR-FRET

Human Cot, sequence (P41279 30-397): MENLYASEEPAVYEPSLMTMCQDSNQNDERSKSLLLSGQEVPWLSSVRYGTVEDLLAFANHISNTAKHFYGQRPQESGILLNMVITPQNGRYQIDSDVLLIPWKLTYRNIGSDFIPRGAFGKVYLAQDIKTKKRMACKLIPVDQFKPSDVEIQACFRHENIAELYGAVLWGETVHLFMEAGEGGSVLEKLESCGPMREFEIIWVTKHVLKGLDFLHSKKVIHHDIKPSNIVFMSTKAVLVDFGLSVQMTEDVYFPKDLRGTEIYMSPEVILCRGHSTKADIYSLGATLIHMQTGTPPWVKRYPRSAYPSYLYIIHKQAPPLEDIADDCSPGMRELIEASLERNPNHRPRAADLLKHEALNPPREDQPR

EC50 (TNFα; [1]) | IC50 (Human Cot; read-out: IC50 HTRF) | EC50 (TNFα; [2]) | IC50 (Human Cot; IC50 HTRF) | Compound
86 nM | 6 nM | – | – | COc1nccc2c([C@H](Nc3cc(Cl)c4ncc(C#N)c(NCC(C)(C)C)c4c3)c3cn(C4(C)CC4)nn3)cccc12 [Example 913, (S)-8-chloro-6-(((1-methoxylsoquinolin-5-yl)(1-(1-methylcyclopropyl)-1H-1,2,3-triazol-4-yl)methyl)amino)-4-(neopentylamino)quinoline-3-carbonitrile]
116 nM | 9 nM | – | – | COc1nccc2c([C@H](Nc3cc(Cl)c4ncc(C#N)c(NCC(C)(C)C)c4c3)c3cn(C4(C(F)F)CC4)nn3)cccc12 [Example 914, (S)-8-chloro-6-(((1-(1-(difluoromethyl)cyclo-propyl)-1H-1,2,3-triazol-4-yl)(1-methoxylsoquinolin-5-yl)methyl)amino)-4-(neopentylamino)quinoline-3-carbonitrile]
– | – | 324 nM | 44 nM | CC(C)(C)CNc1c(C#N)cnc2c(Cl)cc(N[C@H](c3cn(C4(C(F)(F)F)CC4)nn3)c3cccc4cnc(Cl)cc34)cc12 [Example 915, (S)-8-chloro-6-(((3-chloroisoquinolin-5-yl)(1-(1-(trifluoromethyl)cyclopropyl)-1H-1,2,3-triazol-4-yl)methyl)amino)-4-(neopentylamino)quinoline-3-carbonitrile]
– | – | 31 nM | 3 nM | CC(C)(CNc1c(C#N)cnc2c(Cl)cc(N[C@H](c3cn(C45CC(C4)C5)nn3)c3ccc(F)c4ncccc34)cc12)C(F)(F)F [Example 917, (S)-6-(((1-(bicyclo[1.1.1]pentan-1-yl)-1H-1,2,3-triazol-4-yl)(8-fluoroquinolin-5-yl)methyl)amino)-8-chloro-4-((3,3,3-trifluoro-2,2-dimethylpropyl)amino)quinoline-3-carbonitrile]
– | – | 42 nM | 3 nM | CC(C)(CNc1c(C#N)cnc2c(Cl)cc(N[C@H](c3cn(C4(C(F)F)CC4)nn3)c3ccc(F)c4ncccc34)cc12)C(F)(F)F [Example 918, (S)-8-chloro-6-(((1-(1-(difluoromethyl)cyclopropyl)-1H-1,2,3-triazol-4-yl)(8-fluoroquinolin-5-yl)methyl)amino)-4-((3,3,3-trifluoro-2,2-dimethylpropyl)amino)quinoline-3-carbonitrile]
– | – | 49 nM | 2 nM | CC1(n2cc([C@@H](Nc3cc(Cl)c4ncc(C#N)c(NCC(C)(C)C(F)(F)F)c4c3)c3ccc(F)c4ncccc34)nn2)CC1 [Example 919, (S)-8-chloro-6-(((8-fluoroquinolin-5-yl)(1-(1-methylcyclopropyl)-1H-1,2,3-triazol-4-yl)methyl)amino)-4-((3,3,3-trifluoro-2,2-dimethylpropyl)amino)quinoline-3-carbonitrile]
– | – | 28 nM | 3 nM | CC(C)(C)CNc1c(C#N)cnc2c(Cl)cc(N[C@H](c3cn(C45CC(C4)C5)nn3)c3ccc(F)c4ncccc34)cc12 [Example 920, (S)-6-(((1-(bicyclo[1.1.1]pentan-1-yl)-1H-1,2,3-triazol-4-yl)(8-fluoroquinolin-5-yl)methyl)amino)-8-chloro-4-(neopentylamino)quinoline-3-carbonitrile]
– | – | 187 nM | 17 nM | CC(C)(C)CNc1c(C#N)cnc2c(Cl)cc(N[C@H](c3cn(C4(C(F)(F)F)CC4)nn3)c3ccc(Cl)c4ncccc34)cc12 [Example 921, (S)-8-chloro-6-(((8-chloroquinolin-5-yl)(1-(1-(trifluoromethyl)cyclopropyl)-1H-1,2,3-triazol-4-yl)methyl)amino)-4-(neopentylamino)quinoline-3-carbonitrile]
225 nM | 11 nM | – | – | COc1nccc2c([C@H](Nc3cc(Cl)c4ncc(C#N)c(NCC(C)(C)C)c4c3)c3nnn(C4(C(F)(F)F)CC4)c3F)cccc12 [Example 922, (S)-8-chloro-6-(((5-fluoro-1-(1-(trifluoromethyl)cyclopropyl)-1H-1,2,3-triazol-4-yl)(1-methoxylsoquinolin-5-yl)methyl)amino)-4-(neopentylamino)quinoline-3-carbonitrile]
258 nM | 16 nM | – | – | COc1nccc2c([C@H](Nc3cc(Cl)c4ncc(C#N)c(NCC(C)(C)C)c4c3)c3nnn(C4(C(F)F)CC4)c3F)cccc12 [Example 923, (S)-8-chloro-6-(((1-(1-(difluoromethyl)cyclopropyl)-5-fluoro-1H-1,2,3-triazol-4-yl)(1-methoxylsoquinolin-5-yl)methyl)amino)-4-(neopentylamino)quinoline-3-carbonitrile]
124 nM | 6 nM | – | – | COc1nccc2c([C@H](Nc3cc(Cl)c4ncc(C#N)c(NCC(C)(C)C(F)(F)F)c4c3)c3cn(C4(C)CC4)nn3)cccc12 [Example 927, (S)-8-chloro-6-(((1-methoxylsoquinolin-5-yl)(1-(1-methylcyclopropyl)-1H-1,2,3-triazol-4-yl)methyl)amino)-4-((3,3,3-trifluoro-2,2-dimethylpropyl)amino)quinoline-3-carbonitrile]
157 nM | 11 nM | – | – | COc1nccc2c([C@H](Nc3cc(Cl)c4ncc(C#N)c(NCC(C)(C)C)c4c3)c3cn(C4(C(F)(F)F)CC4)nn3)cccc12 [Example 929, (S)-8-chloro-6-(((1-methoxylsoquinolin-5-yl)(1-(1-(trifluoromethyl)cyclopropyl)-1H-1,2,3-triazol-4-yl)methyl)amino)-4-(neopentylamino)quinoline-3-carbonitrile]
– | – | 504 nM | 33 nM | COc1ccc2c([C@H](Nc3cc(Cl)c4ncc(C#N)c(NCC(C)(C)C)c4c3)c3cn(C4(C(F)(F)F)CC4)nn3)cccc2n1 [Example 930, (S)-8-chloro-6-(((2-methoxyquinolin-5-yl)(1-(1-(trifluoromethyl)cyclopropyl)-1H-1,2,3-triazol-4-yl)methyl)amino)-4-(neopentylamino)quinoline-3-carbonitrile]
247 nM | 29 nM | – | – | COc1nccc2c([C@H](Nc3cc(Cl)c4ncc(C#N)c(NCC(C)(C)C)c4c3)c3cn(C(CF)CF)nn3)cccc12 [Example 933, (S)-8-chloro-6-(((1-(1,3-difluoropropan-2-yl)-1H-1,2,3-triazol-4-yl)(1-methoxylsoquinolin-5-yl)methyl)amino)-4-(neopentylamino)quinoline-3-carbonitrile]
81 nM | 7 nM | – | – | COc1nccc2c([C@H](Nc3cc(Cl)c4ncc(C#N)c(NCC(C)(C)C(F)(F)F)c4c3)c3cn(C4(C(F)F)CC4)nn3)cccc12 [Example 934, (S)-8-chloro-6-(((1-(1-(difluoromethyl)cyclopropyl)-1H-1,2,3-triazol-4-yl)(1-methoxylsoquinolin-5-yl)methyl)amino)-4-((3,3,3-trifluoro-2,2-dimethylpropyl)amino)quinoline-3-carbonitrile]
– | – | 424 nM | 24 nM | CC(C)(C)CNc1c(C#N)cnc2c(Cl)cc(N[C@@H](c3ccc4nccn4c3)c3cn(C4(C(F)(F)F)CC4)nn3)cc12 [Example 935, (S)-8-chloro-6-((imidazo[1,2-a]pyridin-6-yl(1-(1-(trifluoromethyl)cyclopropyl)-1H-1,2,3-triazol-4-yl)methyl)amino)-4-(neopentylamino)quinoline-3-carbonitrile]
– | – | 287 nM | 18 nM | Cn1cccc([C@H](Nc2cc(Cl)c3ncc(C#N)c(NCC(C)(C)C)c3c2)c2cn(C3(C(F)(F)F)CC3)nn2)c1=O [Example 936, (S)-8-chloro-6-(((1-methyl-2-oxo-1,2-dihydropyridin-3-yl)(1-(1-(trifluoromethyl)cyclopropyl)-1H-1,2,3-triazol-4-yl)methyl)amino)-4-(neopentylamino)quinoline-3-carbonitrile]
– | – | 223 nM | 26 nM | Cc1c([C@H](Nc2cc(Cl)c3ncc(C#N)c(NCC(C)(C)C)c3c2)c2cn(C3(C(F)(F)F)CC3)nn2)ccnc1Cl [Example 938, (S)-8-chloro-6-(((2-chloro-3-methylpyridin-4-yl)(1-(1-(trifluoromethyl)cyclopropyl)-1H-1,2,3-triazol-4-yl)methyl)amino)-4-(neopentylamino)quinoline-3-carbonitrile]
– | – | 104 nM | 18 nM | Cn1ccc2c([C@H](Nc3cc(Cl)c4ncc(C#N)c(NCC(C)(C)C)c4c3)c3cn(C45CCC(CC4)CC5)nn3)cccc2c1=O [Example 939, (S)-6-(((1-(bicyclo[2.2.2]octan-1-yl)-1H-1,2,3-triazol-4-yl)(2-methyl-1-oxo-1,2-dihydroisoquinolin-5-yl)methyl)amino)-8-chloro-4-(neopentylamino)quinoline-3-carbonitrile]
– | – | 86 nM | 7 nM | CC(C)(CNc1c(C#N)cnc2c(Cl)cc(N[C@H](c3cn(C4(C(F)F)CC4)nn3)c3cccc4ncccc34)cc12)C(F)(F)F [Example 940, (S)-8-chloro-6-(((1-(1-(difluoromethyl)cyclopropyl)-1H-1,2,3-triazol-4-yl)(quinolin-5-yl)methyl)amino)-4-((3,3,3-trifluoro-2,2-dimethylpropyl)amino)quinoline-3-carbonitrile]
– | – | 804 nM | 64 nM | COc1cc([C@H](Nc2cc(Cl)c3ncc(C#N)c(NCC(C)(C)C)c3c2)c2cn(C3(C(F)(F)F)CC3)nn2)ccn1 [Example 941, (S)-8-chloro-6-(((2-methoxypyridin-4-yl)(1-(1-(trifluoromethyl)cyclopropyl)-1H-1,2,3-triazol-4-yl)methyl)amino)-4-(neopentylamino)quinoline-3-carbonitrile]
– | – | 142 nM | 17 nM | Cc1nc(F)ccc1[C@H](Nc1cc(Cl)c2ncc(C#N)c(NCC(C)(C)C)c2c1)c1nnn(C2(C(F)F)CC2)c1I [Example 945, (S)-8-chloro-6-(((1-(1-(difluoromethyl)cyclopropyl)-5-iodo-1H-1,2,3-triazol-4-yl)(6-fluoro-2-methylpyridin-3-yl)methyl)amino)-4-(neopentylamino)quinoline-3-carbonitrile]
